Assay [1] addresses T1, recombinant guanylate cyclase reporter cell line (Rattus norvegicus, UniProt P19686+P20595).
T1 construct: expressed in transfected cells
T1 sequence (P20595 1-619): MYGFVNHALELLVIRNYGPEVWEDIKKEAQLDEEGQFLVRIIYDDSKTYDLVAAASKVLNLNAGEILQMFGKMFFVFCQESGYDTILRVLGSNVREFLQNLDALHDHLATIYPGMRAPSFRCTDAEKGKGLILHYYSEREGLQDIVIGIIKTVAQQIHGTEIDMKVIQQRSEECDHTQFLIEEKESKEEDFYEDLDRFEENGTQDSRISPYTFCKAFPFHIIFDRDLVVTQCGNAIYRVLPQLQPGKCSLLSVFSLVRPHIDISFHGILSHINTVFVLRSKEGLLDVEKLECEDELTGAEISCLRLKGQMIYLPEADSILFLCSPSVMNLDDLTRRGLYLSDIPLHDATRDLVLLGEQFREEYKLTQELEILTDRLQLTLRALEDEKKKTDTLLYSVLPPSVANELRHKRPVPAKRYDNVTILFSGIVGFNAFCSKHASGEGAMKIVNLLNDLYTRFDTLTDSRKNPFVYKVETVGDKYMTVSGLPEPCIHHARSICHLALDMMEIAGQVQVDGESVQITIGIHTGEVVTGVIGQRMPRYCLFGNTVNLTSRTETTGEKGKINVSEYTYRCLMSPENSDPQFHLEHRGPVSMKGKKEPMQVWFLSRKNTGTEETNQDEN
T1 sequence (P19686 1-690): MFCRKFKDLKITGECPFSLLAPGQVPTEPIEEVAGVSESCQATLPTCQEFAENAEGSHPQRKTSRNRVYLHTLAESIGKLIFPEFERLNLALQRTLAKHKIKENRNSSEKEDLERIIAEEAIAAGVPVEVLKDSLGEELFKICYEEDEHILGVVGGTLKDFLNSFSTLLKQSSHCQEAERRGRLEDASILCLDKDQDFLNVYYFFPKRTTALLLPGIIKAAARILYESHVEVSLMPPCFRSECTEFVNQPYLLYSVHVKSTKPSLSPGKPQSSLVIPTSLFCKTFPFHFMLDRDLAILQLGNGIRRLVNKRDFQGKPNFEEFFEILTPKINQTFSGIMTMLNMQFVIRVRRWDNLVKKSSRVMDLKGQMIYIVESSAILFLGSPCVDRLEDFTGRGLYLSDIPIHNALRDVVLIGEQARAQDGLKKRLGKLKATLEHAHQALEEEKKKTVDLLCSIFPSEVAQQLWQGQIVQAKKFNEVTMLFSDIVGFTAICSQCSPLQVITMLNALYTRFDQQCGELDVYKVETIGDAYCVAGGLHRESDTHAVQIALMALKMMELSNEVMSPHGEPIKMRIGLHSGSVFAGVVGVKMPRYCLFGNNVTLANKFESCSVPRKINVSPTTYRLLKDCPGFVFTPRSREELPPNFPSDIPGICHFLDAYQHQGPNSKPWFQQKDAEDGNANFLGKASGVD
Briefly: Action on recombinant guanylate cyclase reporter cell line. Format: cell-based. The procedure:
B-2. Action on Recombinant Guanylate Cyclase Reporter Cell Line
The cellular action of the compounds according to the invention is determined on a recombinant guanylate cyclase reporter cell line, as described in F. Wunder et al., Anal. Biochem. 339, 104-112 (2005).

The test system of the next assay is aorta rings. Briefly: Vessel-relaxing action in vitro (aorta rings, phenylephrine contraction). As to conditions: Oryctolagus cuniculus, concentration required to reduce phenylephrine-induced contraction of rabbit aorta rings by 50%. The procedure: B-1. Vessel-relaxing Action in vitro
Rabbits are stunned with a blow on the back of the neck and exsanguinated. The aorta is removed, freed from adhering tissue, separated into rings with a width of 1.5 mm, and placed individually, with preloading, in 5-ml organ baths with carbogen-gassed Krebs-Henseleit solution at 37° C. with the following composition (mM in each case): sodium chloride: 119; potassium chloride: 4.8; calcium chloride dihydrate: 1; magnesium sulphate heptahydrate: 1.4; potassium dihydrogen phosphate: 1.2; sodium hydrogen carbonate: 25; glucose: 10. The contraction force is recorded with Statham UC2 cells, amplified and digitized via an A/D converter (DAS-1802 HC, Keithley Instruments Munich) and recorded in parallel on a continuous-line recorder. To produce contraction, phenylephrine is added to the bath cumulatively in increasing concentration. After several control cycles, the test substance is added in increasing dosage in each subsequent pass and the level of contraction is compared with the level of contraction reached in the immediately preceding pass. This is used for calculating the concentration that is required to reduce the level of the control value by 50% (IC50 value). The standard application volume is 5 μl, and the proportion of DMSO in the bath solution corresponds to 0.1%.

Assay [2] deals with T2, human phosphodiesterase 5 (PDE-5) (Homo sapiens, UniProt O76074).
T2 construct: PDE-5 preparations are obtained from human platelets by lysis; from tissue; host or cells: human platelets
Nature of the assay: Inhibition of human phosphodiesterase 5 (PDE-5), SPA assay. It counts as biochemical. As to conditions: PDE-5 preparation from human platelets, [8-3H]cGMP substrate. In a few lines: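 PDE-5 partially purified from human platelets by Mono Q chromatography, diluted so under 70% of [8-3H]cGMP (0.025 μCi) converted. Compounds at 4 μM to 0.0018 μM final, Tris-HCl pH 7.5 with MgCl2, 60 min at room temperature. Yttrium SPA beads stop reaction; IC50 from concentration–inhibition plots.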

Molecules are shown by their SMILES.

For the compound `CC(C)(O)CNc1nc(-c2nn(Cc3ccccc3F)c3ncc(F)cc23)nc2c1C(C)(C)C(=O)N2` [Example 4, 2-[5-Fluoro-1-(2-fluorobenzyl)-1H-pyrazolo[3,4-b]pyridin-3-yl]-4-[(2-hydroxy-2-methylpropyl)amino]-5,5-dimethyl-5,7-dihydro-6H-pyrrolo[2,3-d]pyrimidin-6-one], the “MEC (minimal effective concentration)” value in assay [1] is 0.1 μm. The figures for the IC50 (with aorta rings; in assay [2]) were 0.062 µM and 0.006 µM, respectively.

With `CC1(C)C(=O)Nc2nc(-c3nn(Cc4ccccc4F)c4ncc(F)cc34)nc(NCCC(F)(F)F)c21` [Example 5, 2-[5-Fluoro-1-(2-fluorobenzyl)-1H-pyrazolo[3,4-b]pyridin-3-yl]-5,5-dimethyl-4-[(3,3,3-trifluoropropyl)amino]-5,7-dihydro-6H-pyrrolo[2,3-d]pyrimidin-6-one], the “MEC (minimal effective concentration)” value in assay [1] came to 0.03 μm. In addition, the results for the half-inhibitory concentration (IC50) (in the assay on aorta rings; in assay [2]) were 0.285 µM and 0.13 µM, respectively.

As for `CC1(C)C(=O)Nc2nc(-c3nn(Cc4ccccc4F)c4ncc(F)cc34)nc(NCC(F)F)c21` [Example 7, 4-[(2,2-Difluoroethyl)amino]-2-[5-fluoro-1-(2-fluorobenzyl)-1H-pyrazolo[3,4-b]pyridin-3-yl]-5,5-dimethyl-5,7-dihydro-6H-pyrrolo[2,3-d]pyrimidin-6-one], the “MEC (minimal effective concentration)” value in assay [1] is given as 0.1 μm. The concentration for half-maximal inhibition (IC50) (commonly the concentration at which inhibition is half-maximal) in the assay on aorta rings stood at 0.2 µM; in assay [2], 0.11 µM.

On to `CC1(C)C(=O)Nc2nc(-c3nn(Cc4ccccc4F)c4ncc(F)cc34)nc(N3CC(F)C3)c21` [Example 8, 4-(3-Fluoroazetidin-1-yl)-2-[5-fluoro-1-(2-fluorobenzyl)-1H-pyrazolo[3,4-b]pyridin-3-yl]-5,5-dimethyl-5,7-dihydro-6H-pyrrolo[2,3-d]pyrimidin-6-one], for which, in assay [1], the “MEC (minimal effective concentration)” value is 0.3 μm. For the same compound, the results for the half-maximal inhibitory concentration (IC50) (in the assay on aorta rings; in assay [2]) were 0.309 µM and 0.4 µM, respectively.

Take `CC1(C)C(=O)Nc2nc(-c3nn(Cc4ccccc4F)c4ncc(F)cc34)nc(NC(C3CC3)C3CC3)c21` [Example 9, 4-[(Dicyclopropylmethyl)amino]-2-[5-fluoro-1-(2-fluorobenzyl)-1H-pyrazolo[3,4-b]pyridin-3-yl]-5,5-dimethyl-5,7-dihydro-6H-pyrrolo[2,3-d]pyrimidin-6-one]: the “MEC (minimal effective concentration)” value in assay [1] turned out to be 0.1 μm. Further, the IC50 in the assay with aorta rings worked out at 21 µM; in assay [2] it was 0.23 µM.

With `CC1(C)C(=O)Nc2nc(-c3nn(Cc4ccccc4F)c4ncc(F)cc34)nc(NCC3CC3)c21` [Example 10, 4-[(Cyclopropylmethyl)amino]-2-[5-fluoro-1-(2-fluorobenzyl)-1H-pyrazolo[3,4-b]pyridin-3-yl]-5,5-dimethyl-5,7-dihydro-6H-pyrrolo[2,3-d]pyrimidin-6-one], in assay [1], the “MEC (minimal effective concentration)” value is given as 0.3 μm. In addition, the half-inhibitory concentration (IC50) turned out to be 0.552 µM with aorta rings and 0.052 µM in assay [2].

Regarding `CC1(C)C(=O)Nc2nc(-c3nn(Cc4ccccc4F)c4ncc(F)cc34)nc(NCC(F)(F)F)c21` [Example 11, 2-[5-Fluoro-1-(2-fluorobenzyl)-1H-pyrazolo[3,4-b]pyridin-3-yl]-5,5-dimethyl-4-[(2,2,2-trifluoroethyl)amino]-5,7-dihydro-6H-pyrrolo[2,3-d]pyrimidin-6-one], in assay [1], the “MEC (minimal effective concentration)” value was determined as 0.3 μm. Also, the values for the IC50 (with aorta rings; in assay [2]) were 0.663 µM and 0.048 µM, respectively.

Turning to `CC1(C)C(=O)Nc2nc(-c3nn(Cc4ncccc4F)c4ncc(F)cc34)nc(NCCC(F)(F)F)c21` [Example 12, 2-{5-Fluoro-1-[(3-fluoropyridin-2-yl)methyl]-1H-pyrazolo[3,4-b]pyridin-3-yl}-5,5-dimethyl-4-[(3,3,3-trifluoropropyl)amino]-5,7-dihydro-6H-pyrrolo[2,3-d]pyrimidin-6-one], the “MEC (minimal effective concentration)” value in assay [1] turned out to be 0.1 μm. Moreover, the concentration for half-maximal inhibition (IC50) was determined as 0.631 µM in the assay with aorta rings and 0.05 µM in assay [2].

For the compound `CC1(C)C(=O)Nc2nc(-c3nc(Cc4c(F)ccc(F)c4F)n4cc(Cl)ccc34)nc(NCCC(F)(F)F)c21` [Example 13, 2-[6-Chloro-3-(2,3,6-trifluorobenzyl)imidazo[1,5-a]pyridin-1-yl]-5,5-dimethyl-4-[(3,3,3-trifluoropropyl)amino]-5,7-dihydro-6H-pyrrolo[2,3-d]pyrimidin-6-one], in assay [1], the “MEC (minimal effective concentration)” value was 0.1 μm. The half-inhibitory concentration (IC50) with aorta rings worked out at 4.97 µM; in assay [2] it was 0.08 µM.

On to `CC1(C)C(=O)Nc2nc(-c3nn(Cc4ncccc4F)c4ncc(F)cc34)nc(N3CC(F)C3)c21` [Example 15, 4-(3-Fluoroazetidin-1-yl)-2-{5-fluoro-1-[(3-fluoropyridin-2-yl)methyl]-1H-pyrazolo[3,4-b]pyridin-3-yl}-5,5-dimethyl-5,7-dihydro-6H-pyrrolo[2,3-d]pyrimidin-6-one], for which the “MEC (minimal effective concentration)” value in assay [1] was 1.0 μm. Also, the 50% inhibitory concentration (IC50) with aorta rings was 0.453 µM; in assay [2] it was 0.43 µM.

As to `CC1(C)C(=O)Nc2nc(-c3nn(Cc4ncccc4F)c4ncc(F)cc34)nc(NCC(F)(F)F)c21` [Example 16, 2-{5-Fluoro-1-[(3-fluoropyridin-2-yl)methyl]-1H-pyrazolo[3,4-b]pyridin-3-yl}-5,5-dimethyl-4-[(2,2,2-trifluoroethyl)amino]-5,7-dihydro-6H-pyrrolo[2,3-d]pyrimidin-6-one], the “MEC (minimal effective concentration)” value in assay [1] was found to be 0.1 μm. The IC50 in the assay with aorta rings was 0.126 µM; in assay [2], 0.013 µM.

Regarding `CC1(C)C(=O)Nc2nc(-c3nn(Cc4ncccc4F)c4ncc(F)cc34)nc(NCC3CC3)c21` [Example 17, 4-[(Cyclopropylmethyl)amino]-2-{5-fluoro-1-[(3-fluoropyridin-2-yl)methyl]-1H-pyrazolo[3,4-b]pyridin-3-yl}-5,5-dimethyl-5,7-dihydro-6H-pyrrolo[2,3-d]pyrimidin-6-one], the “MEC (minimal effective concentration)” value in assay [1] is on record as 0.1 μm. Moreover, the half-inhibitory concentration (IC50) with aorta rings is 0.2 µM; in assay [2] it was 0.024 µM.

With `CC1(C)C(=O)Nc2nc(-c3nn(Cc4ccccc4F)c4ncc(F)cc34)nc(NCCCC(F)(F)F)c21` [Example 18, 2-[5-Fluoro-1-(2-fluorobenzyl)-1H-pyrazolo[3,4-b]pyridin-3-yl]-5,5-dimethyl-4-[(4,4,4-trifluorobutyl)amino]-5,7-dihydro-6H-pyrrolo[2,3-d]pyrimidin-6-one], the “MEC (minimal effective concentration)” value in assay [1] came to 0.03 μm. In addition, the values for the IC50 (with aorta rings; in assay [2]) were 2.72 µM and 0.12 µM, respectively.

Consider `CC1(C)C(=O)Nc2nc(-c3nn(Cc4ccccc4F)c4c3CCC4)nc(NCC(F)(F)F)c21` [Example 19, 2-[1-(2-Fluorobenzyl)-1,4,5,6-tetrahydrocyclopenta[c]pyrazol-3-yl]-5,5-dimethyl-4-[(2,2,2-trifluoroethyl)amino]-5,7-dihydro-6H-pyrrolo[2,3-d]pyrimidin-6-one], for which the “MEC (minimal effective concentration)” value in assay [1] came out at 0.3 μm. Moreover, the IC50 with aorta rings amounted to 1.28 µM; in assay [2] it was 0.28 µM.

The record behind these values is patent US8859569B2, “Substituted annellated pyrimidines and use thereof” (Bayer Pharma Aktiengesellschaft, priority 2011, dated 2014).
